Measured values: patent publication US12064453B2, “Biochemical and biomechanical conditioning for enhancing personalized mesenchymal stem cell therapies” (BOARD OF REGENTS, THE UNIVERSITY OF TEXAS SYSTEM, priority 2017, dated 2024)

What was measured:
[1] = test system: FOXO; settings: MSCs; VEGF at 2 Hz frequency of loading (5% maximal strain) or at 1 Hz; 10 ng/ml; 8 hours
Method: (§1) Transcription factor activity assay. The cells were transduced with luminescent reporter vectors for target transcription factors. Briefly, for each target transcription factor, freshly passaged hMSCs were treated with luciferase reporter expressing lentiviruses (Qiagen). For the drug screening assay, hMSCs were treated with biomolecules in the kinase inhibitor library (Millipore Calbiochem) 1 hour prior to loading. After mechanical loading, the cells were lysed and the relative luminescent signal was measured using the luciferase assay kit (Promega) with FlexStation-3 plate reader (Molecular Devices). For each plate, average from three individual readings was reported.
(§2) A major limitation of previous studies in mechanobiology is the limited ability to investigate a variety of conditions simultaneously. This gap in capability leads to an incomplete exploration of the range of mechanical conditions and greatly reduces the ability to examine synergy between applied mechanical forces and biochemical signals. Mesenchymal stem cells were transduced with lentiviruses expressing luciferase reporter constructs for transcription factors including FOXO, TCF/LEF, Smad2/3 and SRE and selected these to obtain a stable reporter cell line. […]

[2] = test system: TCF/LEF; settings: MSCs; loading at 0.1 Hz with VEGF treatment; 10 ng/ml; 8 hours
Method: as §1, §2

[3] = test system: Human mesenchymal stem cells (hMSCs); assay: Long term conditioning of hMSCs with biochemical factors and mechanical load, immunostaining; type: cell-based; settings: seven days; for endothelial marker vWF: in combination with mechanical loading; for paxillin levels: with and without load (0.1 Hz, 7.5% strain, 4 hours daily)
Method: Human mesenchymal stem cells (hMSCs; Millipore) were cultured in low glucose DMEM medium supplemented with 15% fetal bovine serum, L-glutamine, and penicillin/streptomycin. Following trypsinization, cells were seeded on the membranes at 4,000 cells per cm^2 before mechanical loading. Immunocytochemical staining. Cells were fixed in 4% paraformaldehyde in PBS for 10 min followed by washing and permeabilization with 0.1% Triton X-100 PBS for 5 min. Next, samples were blocked with 1% BSA 5% FBS in PBS for 40 min. After washing, cells were incubated with primary antibodies (Table 1) overnight at 4° C. The next day, samples were washed in 1% BSA in PBS and was incubated with secondary antibodies and DAPI staining for 2 hours in a light protected environment. For actin staining, an alternative step was used in which samples were treated with Alexa 594 conjugated phalloidin for 30 min. Cells were washed thoroughly before they were imaged. For standard fluorescent microscopy, Zeiss Observerl was used. […] Long term conditioning of hMSCs using biochemical factors. For long term loading, cells were exposed to media containing small biomolecules (Table 3). They were loaded for 4 hours every day for 7 days under sine and brachial waveform at 0.1 Hz and 7.5% maximum strain and compared against those in static culture. Media containing the biomolecules were replaced on day 3 and day 5, with the exception of 5-Aza containing media. Due to the cytotoxic nature of 5-Aza, it was replaced with normal media on day 1. On day 6, media was replaced with 0.5% FBS containing media post loading. Following long term loading on day 7, the condition media was collected and further assays were performed on the cells. To examine the ability of long term application of mechanical loading in conditioning MSCs, the cells were treated with treatments known to cause differentiation into vascular/cardiovascular phenotypes including 5-azacitidine (5-aza), Dexamethasone with insulin (Dex+Ins), PDGF-BB, hydrocortisone (Hydrocort), EGF, VEGF-A, and TGF-β1.

[4] = test system: Human mesenchymal stem cells (hMSCs); settings: long term conditioning
Text: Fluorescence Activated Cell Sorting (FACS). After long term loading, the cells were then detached from the loading plate using accutase (Sigma) and was labeled with fluorescent antibodies according the BD Bioscience FACS staining kit (BD 562725) for cardiovascular phenotypes such as endothelial, smooth muscle, and pericyte phenotypes. […] Fortessa of UT Austin Core Facility was used to measure population fluorescent signals.
To address these issues, a combinatorial set of mechanical loading and biochemical or pharmacological treatments were applied to MSCs and the phenotype assessed using multiple markers using FACS (FIG. 5A).

[5] = test system: Smad2/3; assay: Smad transcription factor activity, multi-strain mechanical loading; type: cell-based, human; settings: MSCs; 0.1 Hz, 7.5% strain, 24 hours, co-treatment
Method: Transcription factor activity assay.
To perform a high throughput assay of the dependence of magnitude of mechanical strain on the activation of Smad2/3, the heights of the individual pistons were adjusted to apply mechanical strains over a range of 0 to 17.5% strain, in increments of 2.5% strain (FIGS. 2B-D). […] The regulation of differentiation-related pathways in MSCs was examined by loading the cells for 24 hours under multi-strain conditions at 0.1 Hz and performing immunostaining. A maximal increase in nuclear to cytoplasmic Yap/Taz was found at 7.5% strain and maximal nuclear localization of Smad2/3 at 10-12.5% strain (FIG. 2F). In addition, there was a maximal increase in α-SMA expression in the range of strains from 7.5-12.5% strain (FIG. 2G). At 10-15% strain, there was a maximal increase in polymerized actin and paxillin (FIG. 2G). The mechanical loading was repeated at 7.5% strain with 0.1 Hz frequency using both sine and brachial waveforms and then performed western blotting. With brachial waveform loading, increases in PECAM-1 expression were found and as well as a reduction in α-SMA expression and an increase in p-Smad 2/3 (FIGS. 2H, I). Overall, these studies support maximal activation of Smad signaling in MSCs with 0.1 Hz of loading at 7.5% strain, with an increase in endothelial-like phenotype with brachial loading.

[6] = test system: Human mesenchymal stem cells (hMSCs); assay: Oil Red O or Alizarin Red staining for adipogenic and osteogenic differentiation; type: cell-based
Method: Long term conditioning of hMSCs using biochemical factors. For long term loading, cells were exposed to media containing small biomolecules (Table 3). They were loaded for 4 hours every day for 7 days under sine and brachial waveform at 0.1 Hz and 7.5% maximum strain and compared against those in static culture. Media containing the biomolecules were replaced on day 3 and day 5, with the exception of 5-Aza containing media. Due to the cytotoxic nature of 5-Aza, it was replaced with normal media on day 1. On day 6, media was replaced with 0.5% FBS containing media post loading. Following long term loading on day 7, the condition media was collected and further assays were performed on the cells. […] To test for adipogenic and osteogenic differentiation, the cells were also stained using Oil Red O or Alizarin Red dye.

Molecule | FOXO transcription factor activity [1] | TCF/LEF transcription factor activity [2] | endothelial marker vWF [3] | paxillin levels [3] | endothelial lineage defined by the FACS protocol [4] | PECAM-1 ([3]; in combination with mechanical load) | Smad transcription factor activity [5] | nuclear localization of Yap/Taz ([3]; with mechanical loading, in comparison to other treatment groups) | Osteogenesis (Alizarin Red) ([6]; static conditions) | Osteogenesis (Alizarin Red) ([6]; with mechanical loading)
VEGF | reduction in FOXO activity | synergistically activated | to a lesser extent | increased paxillin levels | did not increase |  |  |  |  | 
Nc1ncn([C@@H]2O[C@H](CO)[C@@H](O)[C@H]2O)c(=O)n1 [5-aza, 5-Azacytidine] |  |  |  | increased paxillin levels |  | increased |  |  |  | 
TGF-β1 |  |  |  | not increased |  |  | optimal synergistic activation | markedly reduced | observed | did not occur
EGF [growth factor, Sigma-Aldrich E9644, 10 ng/mL] |  |  | to a lesser extent | increased paxillin levels |  |  |  |  |  | 
